Data taken from BindingDB's records for PubMed 2795135 (Stanford University, 1989).
pKi: −log10 of the molar value. Where “and” joins values, the source holds several entries; their conditions need not be identical. Identical values can stand only once.

Assays:
[1] = biological target: 5-hydroxytryptamine receptor 2A (Rattus norvegicus, UniProt P14842)
[2] = biological target: 5-hydroxytryptamine receptor 2B (Bos taurus, UniProt Q8MI09)
Sequence of 5-hydroxytryptamine receptor 2B (Q8MI09 whole entry): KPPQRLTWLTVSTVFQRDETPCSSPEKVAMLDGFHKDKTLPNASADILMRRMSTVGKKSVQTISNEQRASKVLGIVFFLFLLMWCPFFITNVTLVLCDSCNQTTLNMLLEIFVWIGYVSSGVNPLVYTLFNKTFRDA

Sequence of 5-hydroxytryptamine receptor 2A (P14842 whole entry): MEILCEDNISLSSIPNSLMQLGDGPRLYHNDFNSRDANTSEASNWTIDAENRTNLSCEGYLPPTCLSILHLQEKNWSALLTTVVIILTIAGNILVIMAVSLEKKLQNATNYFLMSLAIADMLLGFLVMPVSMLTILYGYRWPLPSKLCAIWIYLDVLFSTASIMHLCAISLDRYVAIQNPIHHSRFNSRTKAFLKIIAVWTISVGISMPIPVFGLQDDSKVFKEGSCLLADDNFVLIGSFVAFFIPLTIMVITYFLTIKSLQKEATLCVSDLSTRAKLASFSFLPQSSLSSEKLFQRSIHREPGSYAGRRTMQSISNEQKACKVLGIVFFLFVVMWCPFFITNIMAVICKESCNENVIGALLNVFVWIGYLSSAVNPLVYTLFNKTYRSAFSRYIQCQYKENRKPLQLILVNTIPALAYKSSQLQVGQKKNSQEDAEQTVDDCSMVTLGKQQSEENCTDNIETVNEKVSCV

| Structure (SMILES) | pKi [1] | pKi [2] |
| --- | --- | --- |
| COc1cc(CC(C)N)c(OC)cc1C (stereo not drawn) [(+/-)2-(2,5-Dimethoxy-4-methyl-phenyl)-1-methyl-ethylamine] | 8.32 | 6.40 |
| CN1C[C@@H](NS(=O)(=O)N(C)C)C[C@@H]2c3cccc4c3c(cn4C)C[C@H]21 [MESULERGINE] | – | 8.10 |
| Clc1cccc(N2CCNCC2)c1 [mCPP] | 7.68 | 6.02 |
| CCCN(CCC)C1CCc2cccc(O)c2C1 (stereo not drawn) | 6.15 | 5.27 |
| CN(C)CCCSc1ccccc1NC(=O)/C=C/c1ccccc1 [CINANSERIN] | 8.15 | 8.30 |
| CN(C)CCCN1c2ccccc2Sc2ccc(Cl)cc21 [[3-(2-Chloro-phenothiazin-10-yl)-propyl]-dimethyl-amine(Chlorpromazine)] | – | 8.22 |
| COc1ccc2[nH]cc(C3=CCNCC3)c2c1 [5-Methoxy-3-(1,2,3,6-tetrahydro-pyridin-4-yl)-1H-indole(RU-24969)] | – | 5.92 |
| CN(C)CCc1c[nH]c2cccc(OP(=O)(O)O)c12 [psilocybin] | 7.89 | 6.22 |
| CN(C)CCc1c[nH]c2ccccc12 [2-(1H-indol-3-yl)-N,N-dimethylethanamine] | 7.38 | 6.26 |
| CN1C2CCC1CC(OC(=O)c1c[nH]c3ccccc13)C2 (stereo not drawn) | < 5.00 | 5.59 |
| CN(C)CCc1c[nH]c2cccc(O)c12 [4-hydroxy-N,N-dimethyltryptamine] | 7.92 | 6.35 |
| O=C(c1ccc(F)cc1)C1CCN(CCn2c(=O)[nH]c3ccccc3c2=O)CC1 [3-(2-{4-[(4-fluorophenyl)carbonyl]piperidin-1-yl}ethyl)-1,2,3,4-tetrahydroquinazoline-2,4-dione] | – | 8.62 |
| COc1cc(CC(C)N)c(OC)cc1I (stereo not drawn) [[125I]2,5-dimethoxy-4-iodoamphetamine] | 9.05 and 9.28 | 7.00 and 7.26 |
| NCCc1c[nH]c2ccc(C(N)=O)cc12 [[3H]-5-carboxamidotryptamine] | – | < 5.00 |
| CCN(CC)C(=O)[C@@H]1C=C2c3cccc4[nH]cc(c34)C[C@H]2N(C)C1 [(4R,7R)-N,N-diethyl-6-methyl-6,11-diazatetracyclo[7.6.1.0^{2,7}.0^{12,16}]hexadeca-1(16),2,9,12,14-pentaene-4-carboxamide] | – | 7.96 |
| NCCc1c[nH]c2ccccc12 [1H-indole-3-ethanamine] | 7.96 | 5.89 |
| COc1ccc2[nH]cc(CCN(C)C)c2c1 [3-(2-DIMETHYLAMINOETHYL)-5-METHOXYINDOLE] | 7.85 | 5.89 |
| COc1cc(CCN)cc(OC)c1OC [3,4,5-trimethoxyphenylethylamine] | 6.82 | < 5.00 |
| CCc1cc(OC)c(CC(C)N)cc1OC (stereo not drawn) | – | 7.10 |
| c1ccc2nc(N3CCNCC3)ccc2c1 [2-Piperazin-1-yl-quinoline (Quipazine)] | 8.30 | 6.34 |
